Results taken from patent US20250009843A1, “COMPOSITIONS AND METHODS FOR TREATMENTS BY MODULATION OF EXCITABLE TISSUES ACTIVITIES, AND FOR ANTIMICROBIAL APPLICATIONS” (priority 2021, published 2025).

What was measured:
[1] = test system: dorsal root ganglia (DRG) (sensory) neurons; conditions: literature value; cited from earlier work
[2] = test system: dorsal root ganglia (DRG) (sensory) neurons; assay: Single cell patch clamp on DRG neurons (sodium current, action potentials); format: cell-based, rat
Description: Dorsal Root Ganglia (DRG) sensory neurons were extracted from […] (Cdram). The DRG explants were dissected from the cervical and thoracic regions of the spine of neonatal rat pups (P5) and placed in cold HBSS (lx) without Ca^2+/Mg^2+ (Invitrogen, USA). After cleaning the remnants of peripheral nerve processes, DRGS were seeded in 12-well glass-coated laminin plates. Cells were feed every 2/3 days and they were processed for single cell patch clamping.
Whole cell patch clamp configuration was used to record from 100 day iPSC derived neurons and DRG neurons. […]
Recordings were made using the EPC10 patch clamp amplifier from HEKA. Voltage-dependent Na^+ and K^+ currents were recorded in voltage clamp mode from a holding potential of −70 mV; voltage step depolarization was applied up to +20 mV in 10 mV increments and recorded for 200 ms. All data were recorded unfiltered for voltage and current clamp recording at 50.0 kHz and 20.0 kHz, respectively.
Intrinsic firing properties of neurons were recorded in current clamp mode, with step current injections from a holding value of −5 pA up to +45 pA, for 500 ms, in 10 pA increments. Spontaneous action potential (AP) was recorded in current clamp mode at zero current injection (resting membrane potential) just after whole cell configuration was achieved. […]

DRG cells = assay: Microelectrode Array (MEA) electrical activity of capsaicin-stimulated DRG cells; format: cell-based; conditions: dose range 10-1000 μg/ml; FIG. 3B
DRGs = format: cell-based; conditions: 24-72 hours, 2.5 mg/ml of HA or equivalent
Description: (§1) FIG. 4: Data of the effect of various peptide drug embodiments and peptide alone on metabolic activity and viability of cell types (DRG: dorsal root ganglion; hChon: human normal chondrocytes; OA: human OA chondrocytes). n=3 in all cases; all tested at 2.5 mg/ml of HA or equivalent using gram:gram ratio (See Table). Details on test materials given in below table. […] Panel B: Viability assessed using Live/Dead assay. No significant difference between peptide drug at 24-72 hours in DRGs compared to control.

[3] = test system: TRPV1 pathway in cortical neurons; assay: Calcium imaging of cortical neurons (capsaicin, glutamic acid); format: cell-based; conditions: 1 μg/ml
Description: TRPV1 channels on neurons open in response to stimuli like capsaicin. Once open cations like calcium flow into the cell, which triggers action potentials and the sensation of pain. Cells tested were cortical neurons, n=3 unless noted. Panel A: Calcium imaging is used to measure calcium flow across neural cell membranes. Cells treated in sequence with no chemical (control), PLA (1.9 kDa at 1 μg/ml), capsaicin, and then glutamic acid. […] This is an effect seen by TRPV1 agonists that are used as analgesics such as capsaicin.

cortical neurons = assay: Patch clamp of cortical neurons (sodium current); format: cell-based; conditions: 1 μg/ml; FIG. 10C
E. coli [4] = assay: Optical density assay of antimicrobial effect; format: cell-based; conditions: for E. coli growth (optical density as percentage of control): 16 hours incubation, polymers and conjugates 1-5 mg/ml, PLA 0.01-0.5 mg/ml
Description: As an example of this Hydrobloc prototypes and PLA 1.9 kDa at various concentrations were incubated with E. coli in wells. If microbial growth occurs, then the optical density increases reflecting the colloidal nature of bacterial cells. As a control a blank well is prepared containing growth medium and saline. The results after 16 hours incubation are presented in the figure as a percentage of control. Panel A: Optical density results for various Hydrobloc prototypes and related test materials.
(§2) Hyaluronic acid (2.2-2.4 MDa) or PEG (10 kDa) was used as base polymer conjugated to Poly-L-Arginine (1.9 kDa or 15-70 kDa) as the AMP in varying mass/mass ratios of conjugation, and at different concentrations. Controls included empirical admixtures of the polymer/AMP as well as just the polymer or AMP.
Principle: Antimicrobial test materials added to wells at various concentrations, wells seeded with microbe. Microbial growth increase the optical density (OD)—assay monitors ability of microbe to grow in presence of test material. […] The microbe used was E. Coli. The results are shown in FIG. 13 with the values presented as a percentage of control (blank). […] The OD is ˜≤0.0 at all concentrations (0.01-0.5 mg/ml). Overall statistical significance is seen with 0.25 mg/ml and 5 mg/ml.

E. coli [5] = assay: Kirby-Bauer disk diffusion susceptibility test; format: cell-based; conditions: BP12P03 1-10 mg/ml; PLA 0.5 mg/ml
Description: as §2
(§3) Principle: Disks were saturated with antimicrobial test material and place on agar seeded with microbe. test material diffuses out and after incubation diameter of the clear zone is proportional to potency against the microbe. BP12P03 at 1 mg/ml −10 mg/ml; PLA (1.9 kDA) at 0.5 mg/ml were tested. Microbes used were S. aureus, S. epidermis and E. coli.

S. aureus = assay: Kirby-Bauer disk diffusion susceptibility test; format: cell-based; conditions: BP12P03 1-10 mg/ml; PLA 0.5 mg/ml
Description: as §2, §3

S. epidermis = assay: Kirby-Bauer disk diffusion susceptibility test; format: cell-based; conditions: BP12P03 1-10 mg/ml; PLA 0.5 mg/ml
Description: as §2, §3

[6] = test system: DRG: dorsal root ganglion; hChon: human normal chondrocytes; OA: human OA chondrocytes; format: cell-based; conditions: 24-72 hours; 2.5 mg/ml of HA or equivalent by gram:gram ratio; three cell types
Description: as §1

**Q.** For CCN(CC)CC(=O)Nc1c(C)cccc1C [Lidocaine], which “Reduction of sodium current reported in the literature” value [1] is on record?
**A.** 38%

**Q.** For NC1=N[C@H](O)[C@H]2[C@H]3O[C@]4(O)O[C@@H]([C@@H](O)[C@@]2(N1)[C@@H]4O)[C@]3(O)CO [TTX, tetrodotoxin], which “Percentage reduction of sodium current (control)” value [2] is on record?
**A.** approximately 99%

**Q.** What does the source list for Poly-L-Arginine [PLA 1.9 kDa]?
**A.** Concentration at which most suppression of spike count is seen (DRG cells): 10 µg/mL; Viability (Live/Dead) (DRGs): best viability profile; Capsaicin (TRPV1 pathway) response ([3]; cortical neurons, n=3): blocks the capsaicin (TRPV1 pathway response); Glutamate response ([3]; glutamic acid after capsaicin): glutamate response is unaffected; Block of sodium current (cortical neurons): time dependent effect—getting stronger with time; E. coli growth (optical density as percentage of control) (E. coli [4]): potent giving quantifiable antimicrobial effects at all concentrations tested; E. coli growth (optical density as percentage of control) (E. coli [4]; listed as PLA): very potent; Optical density (OD) (E. coli [4]; all concentrations (0.01-0.5 mg/ml)): ≤ 0.0; Activity in disk diffusion (E. coli [5]): activity against all tested species; Activity in disk diffusion (S. aureus): activity against all tested species; Activity in disk diffusion (S. epidermis): activity against all tested species

**Q.** Which results are given for “Poly-L-arginine hydrochloride [Hydrobloc C01]”?
**A.** Metabolic activity (Alamar Blue) [6]: negatively affect metabolic activity; Viability (Live/Dead) (DRGs): negatively affect viability
